12 compounds from patent EP4512427A1, “ANTIBODY-DRUG CONJUGATES BASED ON MOLECULAR GLUE DEGRADERS AND USES THEREOF” (Mablink Bioscience, priority 2023, dated 2025) can be followed below.

What all share (assay): In vitro cytotoxicity assay (MTT)
Common to all, as to format: cell-based, human

The subject of one data set is SKBR-3. Particulars: 6 days incubation. The method, then: (§1) In vitro cytotoxicity of compounds of the disclosure was assessed on several cancerous human cell lines. Cells were plated in 96-well plates at an appropriate density depending on the cell line (between 1000 and 10 000 cells/well in 100µL of appropriate culture media) and incubated at 37°C for 24 hours. Serial dilutions of the tested compound previously dissolved in culture media (50µL) were added, and incubation was carried at 37°C out for 6 days. MTT (5mg/mL in PBS, 20µL, Sigma-Aldrich) was added into the wells, and incubation was continued for 1 to 4 hours at 37°C. Culture media was then carefully removed, and well content was homogeneously dissolved with acidified isopropanol. Absorbance values were measured on a microplate reader using a wavelength of 570 nm (with a reference wavelength of 690 nm). The IC50 concentration values compared to untreated control cells were determined using inhibition dose response curve fitting (GraphPad Prism 9). Exatecan mesylate (cat#HY-13631A) and CR8 (CAS# 294646-77-8; cat#HY-18340) were purchased from MedChemExpress (China).

The test system of another data set is MDA-MB-453. Particulars: 6 days incubation. The method, then:
as §1

For a further data set, the system named is MDA-MB-231. To be noted: 6 days incubation. The method, then: as §1
The subject of the next data set is BT-474. Particulars: BT-474, 6 days incubation, MTT. The method, then: as §1
The next data set deals with NCI-N87. Particulars: 6 days incubation. The method, then:
as §1

In a further data set the test system is JIMT-1. To be noted: 6 days incubation. The method, then: as §1
[1] abbreviates: Homo sapiens, MDA-MB-453, 144 h.
Where [2] appears, read: Homo sapiens, MDA-MB-231, 144 h.

Where only a bound is given, the exact number is not on record here.

For `NCCCNc1nc(NCc2ccc(-c3ccccn3)cc2)n2ncc(Br)c2n1` [Compound 2658], the half-inhibitory concentration (IC50) in the data set with SKBR-3 (Homo sapiens, SK-BR-3, 144 h) is 0.77 nM; in the data set with MDA-MB-453 (setting [1]) it was 7.84 nM; with MDA-MB-231 (setting [2]), 1.98 nM; in the data set with BT-474 (Homo sapiens, BT-474, 144 h), 4.57 nM; with NCI-N87 (Homo sapiens, NCI-N87, 144 h), 6.43 nM.

Regarding `Brc1cnn2c(NCc3ccc(-c4ccccn4)cc3)nc(N[C@H]3CCNC3)nc12` [Compound 2657], the IC50 amounted to 0.13 nM with SKBR-3; 0.77 nM in the data set with MDA-MB-453; 0.56 nM in the data set with MDA-MB-231; 1.71 nM with BT-474; 0.43 nM with NCI-N87.

As to `Brc1cnn2c(NCc3ccc(-c4ccccn4)cc3)nc(N[C@@H]3CCCNC3)nc12` [Compound 2659, 8-bromo-N2-[(3R)-piperidin-3-yl]-N4-{[4-(pyridin-2-yl)phenyl]methyl}pyrazolo[1 ,5-a][1 ,3,5]triazine-2,4-diamine], the half-inhibitory concentration (IC50) in the data set on SKBR-3 amounted to 0.72 nM; in the data set on MDA-MB-453 (setting [1]) it was 0.4 nM; in the data set with MDA-MB-231 (setting [2]) it was 0.26 nM; in the data set with BT-474 (Homo sapiens, BT-474, 144 h) it was 0.72 nM; with NCI-N87 (Homo sapiens, NCI-N87, 144 h), 0.34 nM.

Regarding `Nc1ccc(Nc2nc(NCc3ccc(-c4ccccn4)cc3)n3ncc(Br)c3n2)cc1` [Compound 2584], the IC50 stood at 25.9 nM in the data set with SKBR-3 (Homo sapiens, SK-BR-3, 144 h); 12.3 nM with MDA-MB-453 (setting [1]); 7.17 nM in the data set with MDA-MB-231 (setting [2]); 7.61 nM in the data set on JIMT-1 (Homo sapiens, 144 h); 9.72 nM in the data set on BT-474 (Homo sapiens, BT-474, 144 h); 9.44 nM in the data set with NCI-N87 (Homo sapiens, NCI-N87, 144 h).

As for `N#Cc1cnn2c(NCc3ccc(-c4ccccn4)cc3)nc(N[C@H]3CC[C@H](N)CC3)nc12` [Compound 2478], the half-inhibitory concentration (IC50) in the data set on SKBR-3 is 17.6 nM; in the data set with MDA-MB-453 it was 1.34 nM; with MDA-MB-231, 1.64 nM; in the data set on JIMT-1, 1.18 nM; in the data set with BT-474 it was 1.72 nM; with NCI-N87, 6.88 nM.

On to `Brc1cnn2c(Nc3ccc(CN4CCOCC4)cc3)nc(NC3CCNCC3)nc12` [Compound 2554], for which the 50% inhibitory concentration (IC50) in the data set on SKBR-3, in the data set with MDA-MB-453, with MDA-MB-231, in the data set on JIMT-1, in the data set on BT-474 and with NCI-N87 was above 100 nM throughout.

With `N[C@H]1CC[C@H](Nc2nc(NCc3ccc(-c4ccccn4)cc3)n3ncc(Br)c3n2)C1` [Compound 2669], the 50% inhibitory concentration (IC50) in the data set on SKBR-3 (Homo sapiens, SK-BR-3, 144 h) came to 0.67 nM; with MDA-MB-453 (setting [1]) it was 0.59 nM; with MDA-MB-231 (setting [2]), 0.44 nM; in the data set on BT-474 (Homo sapiens, BT-474, 144 h), 1.75 nM; in the data set with NCI-N87 (Homo sapiens, NCI-N87, 144 h) it was 0.39 nM.

Take `Brc1cnn2c(NCc3ccc(-c4ccccn4)cc3)nc(NCC3CCNCC3)nc12` [Compound 2569]: the IC50 with SKBR-3 (Homo sapiens, SK-BR-3, 144 h) is 62.6 nM; with MDA-MB-453 (setting [1]) it was 12.8 nM; with MDA-MB-231 (setting [2]), 11.2 nM; with JIMT-1 (Homo sapiens, 144 h) it was 6.7 nM; with BT-474 (Homo sapiens, BT-474, 144 h) it was 15.2 nM; in the data set on NCI-N87 (Homo sapiens, NCI-N87, 144 h), 19.7 nM.

For the compound `NCCNc1nc(NCc2ccc(-c3ccccn3)cc2)n2ncc(Br)c2n1` [Compound 2638], the IC50 with SKBR-3 (Homo sapiens, SK-BR-3, 144 h) was 0.82 nM; in the data set on MDA-MB-453 (setting [1]) it was 0.88 nM; in the data set with MDA-MB-231 (setting [2]), 0.3 nM; in the data set with BT-474 (Homo sapiens, BT-474, 144 h), 0.78 nM; with NCI-N87 (Homo sapiens, NCI-N87, 144 h) it was 0.42 nM.

Turning to `Brc1cnn2c(NCc3ccc(-c4ccccn4)cc3)nc(N[C@@H]3CCNC3)nc12` [Compound 2656], the concentration for half-maximal inhibition (IC50) in the data set on SKBR-3 (Homo sapiens, SK-BR-3, 144 h) is 0.17 nM; in the data set on MDA-MB-453 (setting [1]) it was 1.13 nM; with MDA-MB-231 (setting [2]), 0.65 nM; in the data set on BT-474 (Homo sapiens, BT-474, 144 h), 2.52 nM; in the data set with NCI-N87 (Homo sapiens, NCI-N87, 144 h), 1.42 nM.

As to `N[C@H]1CCCC[C@H]1Nc1nc(NCc2ccc(-c3ccccn3)cc2)n2ncc(Br)c2n1` [Compound 2672], the IC50 in the data set on SKBR-3 (Homo sapiens, SK-BR-3, 144 h) is 0.24 nM; with MDA-MB-453 (setting [1]), 0.76 nM; in the data set with MDA-MB-231 (setting [2]), 0.46 nM; in the data set with BT-474 (Homo sapiens, BT-474, 144 h) it was 2.12 nM; in the data set on NCI-N87 (Homo sapiens, NCI-N87, 144 h), 0.55 nM.

For the compound `Brc1cnn2c(NCc3ccc(-c4ccccn4)cc3)nc(N[C@@H]3CCCNC3)nc12` [Compound 2660, 8-bromo-N2-[(3R)-piperidin-3-yl]-N4-{[4-(pyridin-2-yl)phenyl]methyl}pyrazolo[1,5-a][1 ,3,5]triazine-2,4-diamine], the IC50 with SKBR-3 amounted to 0.11 nM; in the data set with MDA-MB-453, 0.68 nM; with MDA-MB-231 it was 0.43 nM; in the data set on BT-474 it was 1.25 nM; in the data set with NCI-N87, 0.49 nM.

By IC50 is commonly meant the concentration that gives 50% inhibition. High values mean lower potency, low ones higher potency.
